From ChEMBL document CHEMBL3769353, “Novel indole-based melatonin analogues: Evaluation of antioxidant activity and protective effect against amyloid β-induced damage” (Bioorg Med Chem, 2016)
The source made the active and inactive calls. The rule behind the calls is not given here.

How the values were obtained:
[1] = Cytotoxicity against CHOK1 cells assessed as LDH leakage at 10 uM by spectrophotometric analysis; format: cell-based, Cricetulus griseus; conditions: chinese hamster, cho-k1, 10 µM
[2] = Cytotoxicity against rat PC12 cells at 100 uM; format: cell-based; conditions: pc-12, 100 µM
[3] = Antioxidant activity in rat PC12 cells assessed as inhibition of amyloid beta (25 to 35 amino acid residues) induced ROS generation at 50 uM preincubated overnight followed by addition of amyloid beta (25 to 35 amino acid residues) measured after 120 mins by DCFH-DA-based fluorescence assay; format: functional; conditions: PC-12
Erythrocyte [4] = assay: Antioxidant activity in human erythrocytes assessed as ROS induced DCFH-DA oxidation at 100 uM by fluorescence analysis in presence of 10 uM of H2O2; format: functional, cell-based
PC-12 = assay: Neuroprotective activity against amyloid beta (25 to 35 amino acid residues) induced damage in rat PC12 cells assessed as cell viability preincubated for 3 hrs followed by addition of amyloid beta (25 to 35 amino acid residues) for 24 hrs by MTT assay; format: functional, cell-based
Erythrocyte [5] = assay: Antioxidant activity in human erythrocytes assessed as ROS induced DCFH-DA oxidation at 10 uM by fluorescence analysis in presence of 10 uM of H2O2; format: functional, cell-based

Structure (SMILES) | Activity [1] | Activity [2] | inhibition at 50 µM [3] [%] | Activity (Erythrocyte [4]) | IC50 (PC-12) [µM] | Activity (Erythrocyte [5])
Fc1ccc(-c2[nH]c3ccccc3c2/C=N/Nc2cc(F)cc(F)c2)cc1 | Non-toxic | Non-toxic | 86.4 | Active | 34.3 | Active
Fc1ccc(-c2[nH]c3ccccc3c2/C=N/Nc2ccccc2Br)cc1 | Non-toxic | Non-toxic | 95.5 | Active | 37 | Active
Fc1ccc(-c2[nH]c3ccccc3c2/C=N/Nc2ccc(Cl)cc2Cl)cc1 | Non-toxic | Non-toxic | 83.8 | Active | 51.5 | Active
Fc1ccc(-c2[nH]c3ccccc3c2/C=N/Nc2cc(Cl)ccc2Cl)cc1 | Non-toxic | Non-toxic | 59.2 | Active | 39 | Active
Fc1ccc(-c2[nH]c3ccccc3c2/C=N/Nc2ccc(Cl)cc2)cc1 | Non-toxic | Non-toxic | 49.7 | Active | 73.9 | Active
Fc1ccc(-c2[nH]c3ccccc3c2/C=N/Nc2cccc(Br)c2)cc1 | Non-toxic | Non-toxic |  | Active |  | Active
Fc1ccc(-c2[nH]c3ccccc3c2/C=N/Nc2ccccc2F)cc1 | Non-toxic | Non-toxic | 88.1 | Active | 64.1 | Active
COc1ccc(C(=O)N/N=C/c2c(-c3ccc(F)cc3)[nH]c3ccccc23)cc1 | Non-toxic | Non-toxic | 19.2 |  | > 100 | inactive
Fc1ccc(-c2[nH]c3ccccc3c2/C=N/Nc2ccc(Cl)c(Cl)c2)cc1 | Non-toxic | Non-toxic | 71.2 | Active | 65.7 | Active
Fc1ccc(-c2[nH]c3ccccc3c2/C=N/Nc2cccc(F)c2)cc1 | Non-toxic | Non-toxic | 77.8 | Active | 54.4 | Active
Fc1ccc(-c2[nH]c3ccccc3c2/C=N/Nc2cccc(Cl)c2)cc1 | Non-toxic | Non-toxic | 54.6 | Active | 44 | Active
Fc1ccc(-c2[nH]c3ccccc3c2/C=N/Nc2ccc(F)cc2F)cc1 | Non-toxic | Non-toxic | 74.9 | Active | 50.4 | Active
Fc1ccc(N/N=C/c2c(-c3ccc(F)cc3)[nH]c3ccccc23)cc1 | Non-toxic | Non-toxic | 74 |  | > 100 | inactive
COc1ccc2[nH]cc(CCNC(C)=O)c2c1 [MELATONIN] |  | Non-toxic | 49.9 |  | > 100 | 
Fc1ccc(-c2[nH]c3ccccc3c2/C=N/Nc2ccccc2Cl)cc1 | Non-toxic | Non-toxic | 44.1 | Active | 38.3 | Active
